A melting point compilation (Tetko et al.; mined from patent text by program, amines drawn as free bases though some values may be those of a salt)

Row | Structure (SMILES) | melting point [°C]
1 | N#CC(C(=O)Nc1ccccc1)C(=O)c1nn(-c2ccccc2)c2c1CSc1ccccc1-2 (centres undefined) | 228 to 230
2 | C=C(C)C1CCC2(C(=O)O)CCC3(C)C(CCC4C5(C)CCC(O)C(C)(C)C5CCC43C)C12 (centres undefined) | 291 to 292
3 | CCOP(=O)(Cc1cc(=O)[nH]c2cc(I)ccc12)OCC | 196 to 198
4 | CCCCCCCCCCCCCCCCSCC(C)(CO)C(=O)OC (centres undefined) | 25 to 27
5 | CONc1nc(Nc2ccc(C#N)cc2)nc(Oc2c(C)cc(C#N)cc2C)c1Br | 185 to 186
6 | CC(C)(C)OC(=O)c1ncn2c1[C@@H]1CCCN1C(=O)c1c-2ccc(F)c1Cl | 211 to 212
7 | CCOC(=O)c1[nH]c2cc3[nH]c(C)c(C(=O)OC)c3c(C)c2c1C | 247 to 250
8 | COc1ccc(CNc2cc(-c3cc4cc(F)c(F)cc4[nH]3)ccc2OC)cc1 | 173 to 175
9 | Cc1cccc(C(=O)O)c1N(C)S(=O)(=O)c1ccc(OCCCCNC(=O)c2cc3ccccc3o2)cc1 | > 200
10 | Cc1nnc2n1-c1sc(C#CCn3c(=O)n(C)c(=O)c4ccccc43)cc1C(c1ccccc1Cl)=NC2 | 167 to 170
11 | c1ccc(COc2ccc3c(c2)N=C(NCc2cccnc2)c2ccccc2N3)cc1 | 196 to 197
12 | N#Cc1ccc2cc(CCCCCc3cc4ccc(C#N)cc4o3)oc2c1 | 106 to 107
13 | CCCCc1nc2c(N)nc3ccccc3c2n1CCCCNS(=O)(=O)c1ccccc1 | 75.5 to 79
14 | O=C1C(Br)=C(Br)C(=O)c2c(F)cccc21 | 100
15 | COc1cc2c(cc1OC)-c1cc(OC)c(OC)cc1C1CN3C(=O)CCC3C=C21 (centres undefined) | 252 to 254
16 | COc1nc2cc([N+](=O)[O-])c(C)c(C(=O)Nc3ccc(C)cc3)c2nc1OC | 214 to 215
17 | COCCn1nnc2cc3c(=O)n(C(C)Cn4nccn4)nnc3cc2c1=O (centres undefined) | 145 to 146
18 | Cc1c(I)c(=O)n(-c2cc(C(=O)OC(C)C)c(Cl)cc2F)c(=O)n1C | 147 to 150
19 | COC(=O)C(O)c1ccc(C#N)cc1 (centres undefined) | 51 to 52
20 | NS(=O)(=O)c1nc(Cl)cs1 | 137 to 142
21 | CN(CCc1c[nH]c2ccc(CN)cc12)Cc1ccccc1 | 84 to 85
22 | CCOC(=O)C(N)=NOC(=O)c1cnccc1C(F)(F)F | 172 to 174
23 | CC#CCOc1cc(OCC#CCC)ncn1 | 67.4
24 | OC(Cc1ccncc1)(c1ccc(F)cc1)c1ccc(F)cc1 | 158 to 160

Row | Structure (SMILES) | melting point [°C]
25 | CCCCCCCCCCCCCCCCOCC(O)COC(c1ccccc1)(c1ccccc1)c1ccccc1 (centres undefined) | 49
26 | CC(C)(C)OC(=O)CCc1ccc(C[C@H](NC(=O)OC(C)(C)C)C(=O)O)cc1 | 88.5 to 90
27 | COC(=O)c1ccc(COc2cc(C(C)(C)C)nn2Cc2ccc(C(=O)OC)cc2)cc1 | 93 to 94
28 | CNC(=O)Oc1cc(C)c(NS(C)(=O)=O)c(C)c1 | 178 to 185
29 | CC(C)C(C(=O)O)n1nc(Br)c(Br)c1Br (centres undefined) | 92 to 95
30 | Cc1ccc(Br)cc1-n1nc(-c2ccc(O)cc2O)c2ccc(O)cc21 | 88 to 91
31 | COc1on(C)c(=O)c1-c1ccccc1COc1ccccc1C | 90 to 92
32 | CCCCCCCCCCC1COC(=O)N1C(C)=O (centres undefined) | 51 to 53
33 | CC(C)C[C@H](NC(=O)CCS)C(=O)O | 131 to 132
34 | O=[N+]([O-])c1cccc2c1nc(-c1c(F)cccc1F)n2Cc1c(F)cccc1F | 168 to 170
35 | CN1C(=O)CN(C(=O)CCl)C(c2ccccc2)c2cc(Cl)ccc21 (centres undefined) | 197 to 200
36 | Nc1nc2c(sc(=O)n2CCCCO)c(=O)[nH]1 | 258 to 260
37 | C#CCSc1nnc(-c2cccs2)s1 | 71 to 73
38 | CC(OC(=O)Nc1ccc(-c2ncn(-c3ccc(C(F)(F)F)cc3)n2)cc1)c1ccc(C(F)(F)F)cc1 (centres undefined) | 156 to 158
39 | CCc1c(C(=O)c2cc(C)cc(C)c2)n(C/C=C/COC)c(=O)[nH]c1=O | 142 to 143
40 | CN(C)C(=N[N+](=O)[O-])N(C)Cc1cnc(Cl)s1 | 101 to 102
41 | Cc1ccc(-c2cc(F)c(F)cc2-c2ccc(S(C)(=O)=O)cc2)cc1 | 147 to 148
42 | COC(=O)Cc1c(Br)csc1Br | 38.5 to 39
43 | COCCS(=O)(=O)c1ccccc1S(N)(=O)=O | 120 to 123
44 | CC(C)(C(=O)NC(Nc1c(Nc2cccnc2)c(=O)c1=O)C(C)(C)Cc1ccccc1)c1ccccc1 (centres undefined) | 228 to 231
45 | Cc1ccc(S(=O)(=O)NC(Cc2ccccc2)C(=O)Nc2c(F)cc(F)cc2F)cc1 (centres undefined) | 180 to 181
46 | CSC1C(=O)Nc2ccc(C3=NNC(=O)SC3C)cc21 (centres undefined) | 159
47 | Brc1ccc(C=Cc2ccc(Br)cc2)cc1 | 213

Other lines, results leading:

Row | melting point [°C] | Structure (SMILES)
48 | 220 to 222 | Cc1c(-c2ccc(O)cc2)sc(C#N)c1-c1cccc(O)c1
49 | 192 to 194 | CCN(CC)C(=O)c1cc(-c2ccccc2)c(=O)n2c1-c1cc(Cl)ccc1CN2
50 | 215 to 216 | Cc1ccc(NCC(=O)Nc2ccc(S(N)(=O)=O)cc2Cl)cc1
51 | 92.9 | CC(C)(C)C1=NN(c2ccc(S(=O)(=O)O)cc2)C(c2ccc(F)cc2)C1 (centres undefined)
52 | 159 to 160 | CCOC(=O)CCN1CCN2c3ccccc3Cc3ccccc3C2C1 (centres undefined)
53 | 248 to 249 | O=C(O)c1cc2c(F)ccc(Cl)c2s1
54 | 165 to 166 | CC#Cc1ccc(NC(=O)c2ccccc2NCc2ccncc2)cc1C(F)(F)F
55 | 134 to 135 | CCc1ccc(-n2nc(Cl)cc2-c2ccc(S(C)(=O)=O)cc2)cc1[N+](=O)[O-]
56 | 45 to 47 | Cc1cccc(Nc2ccccc2C=O)c1C
57 | 137 to 140 | Fc1cc(CC2(Cc3ccnc(F)c3)c3ccccc3-c3ncccc32)ccn1
58 | 85 to 87 | O=Cc1c(OCc2ccccc2)cccc1C1OCCCO1
59 | 160 to 162 | O=C(NC1CCN(CCc2cccc3ccccc23)CC1)c1ccccc1
60 | 158 to 159 | Cc1ccc(-n2nc3c(cc2=O)CCCc2sc(CO)cc2-3)cc1
61 | 173 to 174 | CS(=O)(=O)c1ccc(-c2ccccc2-c2ccc(C(F)(F)F)cc2)cc1
62 | 240 | O=C(O)C[C@H]1CC[C@H](Cn2nc(-c3cccs3)c(Cc3cc4c(cc3Cl)OCO4)c2C(=O)O)CC1
63 | > 260 | Cn1cc(C2=C(c3c[nH]c4cc([N+](=O)[O-])ccc34)C(=O)NC2=O)c2ccccc21
64 | 130 to 131 | COc1ccc2c(c1)CC(C)C1C2C(C)CC2(C)C(O)CCC12 (centres undefined)
65 | 123 to 125 | CC(C)c1cccc(C(C)C)c1NC(=O)CN1CCN(c2cccc(Sc3nc4ccccc4[nH]3)c2)CC1
66 | 191 to 192 | COc1ccc(CCc2ccncc2)c2cc(C#N)nn12
67 | 84 to 85 | COc1ccccc1OCCCc1oc(-n2ccnc2C)nc1-c1ccc(Cl)cc1
68 | 114 to 116 | CC(C)Nc1cccnc1N1CCN(C(=O)c2ccc(C(=O)NCCN3CCOCC3)cc2)CC1
69 | 80 to 83 | COc1ccc(C2(CCN3CCC(C(=O)c4nc5ccccc5n4Cc4ccc(F)cc4)CC3)CCN(C(=O)c3cc(OC)c(OC)c(OC)c3)C2)cc1OC (centres undefined)
70 | 236 to 238 | O=C(Nc1ccc(C(CC2CCCC2)C(=O)Nc2nccs2)cc1)c1ccc([N+](=O)[O-])cc1 (centres undefined)
71 | 109 | COC(=O)CCCc1cc2nc(Cl)ccc2n1S(=O)(=O)c1cccc(Br)c1
72 | 106 | Cc1cccc(CC(=O)c2ccnc(-c3ccc(C(=O)N4CCOCC4)cc3)c2)n1
73 | 162 to 163 | CC(C)(C)OC(=O)NC1CCC(CON2C(=O)c3ccccc3C2=O)C1 (centres undefined)

Row | melting point [°C] | Structure (SMILES)
74 | 90 to 91 | C=Cc1ccc2nnn(OS(=O)(=O)c3ccc(C)cc3)c2c1
75 | 101 to 103 | CCCc1c(O[C@@H]2CCC[C@H](Sc3ccc(C(=O)CCC(=O)O)cc3)C2)ccc(C(C)=O)c1O (relative stereo)
76 | 204 to 206 | O=C(O)c1cnc(N2CCCC2)c(OCC2CCCC2)n1
77 | 159 to 161 | O=C(NC[C@H]1CN(c2ccc(C3C=CS(=O)(=O)CC3)cc2)C(=O)O1)C(Cl)Cl (some centres undefined)
78 | 206 to 207 | CCc1nn2c(N3CCN(C)CC3)ccnc2c1S(=O)(=O)c1ccccc1
79 | 116 to 117 | CCOC(=O)COc1cc2c(cc1Cl)C(=O)CC1(CCCCC1)O2
80 | 75 | CS(=O)(=O)c1ccc2c(c1)C1(O)C(C2)SC(=Nc2ccccc2)N1c1ccccc1 (centres undefined)
81 | 187 to 188 | CCN1CCCC(NC(=O)c2ccccc2Nc2ccnc3cc(Cl)ccc23)C1 (centres undefined)
82 | 165 to 167 | OCCNc1nc(Cl)nc2cccc(Br)c12
83 | 210 | Cc1cccc(CC(=O)c2ccnc(-c3ccc(C(=O)NC4CCOCC4)cc3)c2)n1
84 | 188 | NC(=O)C1CCc2cc3c(nc21)CCC3 (centres undefined)
85 | 298 to 300 | Cc1cccc2nc(-c3ccccc3)n(C3CCC(=O)NC3=O)c(=O)c12 (centres undefined)
86 | 216 to 218 | CCOC(=O)C1=C(NC(C)=O)Oc2cc(O)ccc2C1c1cccnc1 (centres undefined)
87 | 109 to 110 | C=CC(=O)NC1CCCCC1
88 | 290 to 292 | O=C1CSc2cc(-c3cccc([N+](=O)[O-])c3)ccc2N1
89 | 75 to 77 | COC(=O)c1cc(Cl)cnc1NCc1ccc(OC)cc1
90 | 178 to 179 | CCCCc1ncc(C=CC(=O)O)n1Cc1ccccc1Cl
91 | 182 to 186 | Cc1c(F)c(OC(F)F)cc2c1c(C#N)c(-c1ccc(S(=O)(=O)N[C@@H](C)C(F)(F)F)cn1)n2C1CCC1
92 | 107 to 108 | Cc1nc(N2CCN(Cc3ccc(C(F)(F)F)cc3)C2=O)sc1Br
93 | 219 | CC(=O)N1CCCC(C2=C(C#N)C(c3cccc4nonc34)c3c[nH]nc3N2)C1 (centres undefined)
94 | 194 to 197 | CC1(C)CC(=NN)c2ccccc21
95 | 104 to 105 | CCCCCc1ccc(-c2ncc(O)cn2)c(F)c1F
96 | 222 to 223 | O=C(C=Cc1ccccc1)Nc1cccc(O)c1
97 | 105 to 107 | C[C@@H](NCCOCc1ccccc1)[C@](O)(Cn1cncn1)c1ccc(Cl)cc1Cl (relative stereo)
98 | 160 to 162 | OC1CCN(c2ncc(-c3cccc(Cl)c3)cn2)CC1
99 | 229 to 233 | CC(C)(C)OC(=O)c1ncn2c1cc(C(=O)N1CCN(C3CC3)CC1)c1cc(Cl)ccc12
